This passage reports GI50 and TGI results from PubChem BioAssay (NCI).

Several values for one entry are separate records, joined by “and”; a condition that tells them apart may be missing. Identical values can stand only once.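 1) Cells in 96-well plates. 2) Compound, 48 h, 5 concentrations. 3) Linear interpolation between surrounding doses. 4) Unreached endpoint = highest concentration. At the GI50, growth is halved. TGI marks complete inhibition of growth.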

The first assay has as its system DU-145 prostate. Kind of assay: NCI-60 cell line screen, 48 h.
For the compound `CC(C)N=c1cc2n(-c3ccc(Cl)cc3)c3ccccc3nc-2cc1Nc1ccc(Cl)cc1`, the GI50 was 3.14 µM and 3.41 µM; the TGI is above 100 µM.

The next assay has as its system OVCAR-8 ovarian. In words: NCI-60 cell line screen, 48 h.
For `N#C/C(=C/N1CCN(C(=O)c2ccco2)C1=S)C(=O)c1ccccc1`, the GI50 is 25400 nM and the TGI is above 100 µM.

With `Nc1nc(SN=Nc2ccc(S(N)(=O)=O)cc2)c2[nH]cnc2n1`, the GI50 is 419 nM and the TGI is above 100 µM.

Consider `COCCOc1cnc2ccn([C@H](C)c3nnc4c(F)cc(-c5cnn(C)c5)cn34)c(=O)c2c1`, for which the GI50 is above 100000 nM and the TGI is above 100 µM.

For `CC(C)CNC(=O)O`, the TGI is above 100 µM.

The compound `CCOC(=O)c1c[nH]c2oc(/C=N/N3CC(CN4CCOCC4)OC3=O)cc2c1=O` (stereo unspecified) displayed a TGI above 100 µM.

Consider `CCC(C)(C)c1ccc(OCCCCCCN2CCNCC2)cc1`, for which the GI50 was 2450 nM and the TGI was 5.3 µM.

Regarding `O=C(Nc1ccc(-n2cc(-c3ccncc3)c(-c3ccc(Cl)c(O)c3)n2)cc1)Nc1ccc(Cl)c(C(F)(F)F)c1`, the GI50 is 1770 nM and the TGI turned out to be 4.8 µM.

Consider `COc1ccc(C(=O)COc2cccc(/C=C3\Oc4ccc5ccccc5c4C3=O)c2)cc1`, for which the GI50 is 4570 nM and the TGI worked out at 14.9 µM.

For the compound `Cc1c(C2=C(Br)C(=O)N(C)C2=O)c(=O)n(C)c(=O)n1C`, the TGI is above 100 µM.

`N#CC(=NCCO)C1=C(O)c2ccccc2C1=O` returned a TGI above 100 µM.

As to `NC(CS/C(Cl)=C/Cl)C(=O)O` (stereo unspecified), the GI50 is 24100 nM and the TGI was above 100 µM.

On to `CCn1c(CO)nn(-c2cc(O[C@@H](C)C(F)(F)F)c(C(=O)Nc3c(F)cccc3Cl)cc2F)c1=O`, for which the GI50 was below 10 nM and the TGI is above 100 µM.

Turning to `CC1CCC(=O)C(C(=O)CC2CC(=O)NC(=O)C2)C1` (stereo unspecified), the TGI is above 100 µM.

Consider `O=C(Nc1ccc(CO)cc1)c1coc2ccccc2c1=O`, for which the GI50 is above 100000 nM and the TGI is above 100 µM.

Regarding `Cc1cc(N/N=C/c2nc(-c3ccc(Br)cc3)oc2C)c2cc(Br)ccc2n1`, the GI50 is 2430 nM and the TGI came to 6.66 µM.

Take `COc1ccc2c(O)cc3c(c2c1)[C@H](CCl)CN3C(=O)c1cc2cc(NC(=O)CCN3CCOCC3)ccc2[se]1`: the GI50 is below 1 nM and the TGI was determined as 0.0843 µM.

In the case of `CC(C)N=c1cc2n(-c3ccc(Cl)cc3)c3ccccc3nc-2cc1Nc1ccc(Cl)cc1`, the GI50 was 2790 nM and the TGI was above 100 µM.

The subject of the next assay is A549 NSCLC. In words: NCI-60 cell line screen, 48 h.
In the case of `N#C/C(=C/N1CCN(C(=O)c2ccco2)C1=S)C(=O)c1ccccc1`, the GI50 was 22000 nM and the TGI stood at 58.4 µM.

With `Nc1nc(SN=Nc2ccc(S(N)(=O)=O)cc2)c2[nH]cnc2n1`, the GI50 is 3060 nM and the TGI is above 100 µM.

Take `COCCOc1cnc2ccn([C@H](C)c3nnc4c(F)cc(-c5cnn(C)c5)cn34)c(=O)c2c1`: the GI50 was above 100000 nM and the TGI is above 100 µM.

`CC(C)CNC(=O)O`: the TGI was above 100 µM.

`CCOC(=O)c1c[nH]c2oc(/C=N/N3CC(CN4CCOCC4)OC3=O)cc2c1=O` (stereo unspecified) yielded a TGI above 100 µM.

As for `CCC(C)(C)c1ccc(OCCCCCCN2CCNCC2)cc1`, the GI50 is 3770 nM and the TGI came to 13.7 µM.

Take `O=C(Nc1ccc(-n2cc(-c3ccncc3)c(-c3ccc(Cl)c(O)c3)n2)cc1)Nc1ccc(Cl)c(C(F)(F)F)c1`: the GI50 is 2210 nM and the TGI worked out at 5.96 µM.

On to `COc1ccc(C(=O)COc2cccc(/C=C3\Oc4ccc5ccccc5c4C3=O)c2)cc1`, for which the GI50 is 21100 nM and the TGI was 52.5 µM.

`Cc1c(C2=C(Br)C(=O)N(C)C2=O)c(=O)n(C)c(=O)n1C` gave a TGI above 100 µM.

The compound `N#CC(=NCCO)C1=C(O)c2ccccc2C1=O` showed a TGI above 100 µM.

In the case of `NC(CS/C(Cl)=C/Cl)C(=O)O` (stereo unspecified), the GI50 was 1690 nM and the TGI is 6.98 µM.

Take `CCn1c(CO)nn(-c2cc(O[C@@H](C)C(F)(F)F)c(C(=O)Nc3c(F)cccc3Cl)cc2F)c1=O`: the GI50 is below 10 nM and the TGI is above 100 µM.

Compound `CC1CCC(=O)C(C(=O)CC2CC(=O)NC(=O)C2)C1` (stereo unspecified) registered a TGI above 100 µM.

On to `O=C(Nc1ccc(CO)cc1)c1coc2ccccc2c1=O`, for which the GI50 is above 100000 nM and the TGI was above 100 µM.

As for `Cc1cc(N/N=C/c2nc(-c3ccc(Br)cc3)oc2C)c2cc(Br)ccc2n1`, the GI50 is 2200 nM and the TGI was found to be 5.2 µM.

`CC(C)N=c1cc2n(-c3ccc(Cl)cc3)c3ccccc3nc-2cc1Nc1ccc(Cl)cc1`: the GI50 is 1850 nM and 1840 nM.

The next assay has as its system RXF 393 renal. In words: NCI-60 cell line screen, 48 h.
With `N#C/C(=C/N1CCN(C(=O)c2ccco2)C1=S)C(=O)c1ccccc1`, the GI50 was 4090 nM and the TGI turned out to be 19.4 µM.

With `Nc1nc(SN=Nc2ccc(S(N)(=O)=O)cc2)c2[nH]cnc2n1`, the GI50 was 394 nM and the TGI is 5.52 µM.

Consider `COCCOc1cnc2ccn([C@H](C)c3nnc4c(F)cc(-c5cnn(C)c5)cn34)c(=O)c2c1`, for which the GI50 is above 100000 nM and the TGI was above 100 µM.

Turning to `CC(C)CNC(=O)O`, the TGI is above 100 µM.

As to `CCOC(=O)c1c[nH]c2oc(/C=N/N3CC(CN4CCOCC4)OC3=O)cc2c1=O` (stereo unspecified), the TGI is above 100 µM.

`CCC(C)(C)c1ccc(OCCCCCCN2CCNCC2)cc1`: the GI50 was 1470 nM and the TGI came out at 2.92 µM.

Take `O=C(Nc1ccc(-n2cc(-c3ccncc3)c(-c3ccc(Cl)c(O)c3)n2)cc1)Nc1ccc(Cl)c(C(F)(F)F)c1`: the GI50 is 755 nM and the TGI is 2.31 µM.

Take `COc1ccc(C(=O)COc2cccc(/C=C3\Oc4ccc5ccccc5c4C3=O)c2)cc1`: the GI50 was 545 nM and the TGI is 1.77 µM.

As for `Cc1c(C2=C(Br)C(=O)N(C)C2=O)c(=O)n(C)c(=O)n1C`, the TGI was 29 µM.

With `N#CC(=NCCO)C1=C(O)c2ccccc2C1=O`, the TGI is above 100 µM.

As for `NC(CS/C(Cl)=C/Cl)C(=O)O` (stereo unspecified), the GI50 is above 44600 nM and the TGI was above 87.2 µM.

`CCn1c(CO)nn(-c2cc(O[C@@H](C)C(F)(F)F)c(C(=O)Nc3c(F)cccc3Cl)cc2F)c1=O` had a TGI above 100 µM.

`CC1CCC(=O)C(C(=O)CC2CC(=O)NC(=O)C2)C1` (stereo unspecified) had a TGI above 100 µM.

With `O=C(Nc1ccc(CO)cc1)c1coc2ccccc2c1=O`, the GI50 was above 100000 nM and the TGI was above 100 µM.

On to `Cc1cc(N/N=C/c2nc(-c3ccc(Br)cc3)oc2C)c2cc(Br)ccc2n1`, for which the GI50 is 5000 nM and the TGI worked out at 19.8 µM.

With `COc1ccc2c(O)cc3c(c2c1)[C@H](CCl)CN3C(=O)c1cc2cc(NC(=O)CCN3CCOCC3)ccc2[se]1`, the GI50 was below 1 nM and the TGI was below 0.001 µM.

Turning to `CC(C)N=c1cc2n(-c3ccc(Cl)cc3)c3ccccc3nc-2cc1Nc1ccc(Cl)cc1`, the GI50 is 921 nM and the TGI worked out at 4.72 µM.

In the next assay the test system is HL-60(TB) leukemia. Kind of assay: NCI-60 cell line screen, 48 h.
For `N#C/C(=C/N1CCN(C(=O)c2ccco2)C1=S)C(=O)c1ccccc1`, the GI50 is 31500 nM and the TGI was 91.5 µM.

With `Nc1nc(SN=Nc2ccc(S(N)(=O)=O)cc2)c2[nH]cnc2n1`, the GI50 is 2180 nM and the TGI was above 53.6 µM.

In the case of `COCCOc1cnc2ccn([C@H](C)c3nnc4c(F)cc(-c5cnn(C)c5)cn34)c(=O)c2c1`, the GI50 is above 100000 nM and the TGI was above 100 µM.

With `CC(C)CNC(=O)O`, the TGI was above 100 µM.

For `CCOC(=O)c1c[nH]c2oc(/C=N/N3CC(CN4CCOCC4)OC3=O)cc2c1=O` (stereo unspecified), the TGI is above 100 µM.

In the case of `CCC(C)(C)c1ccc(OCCCCCCN2CCNCC2)cc1`, the GI50 was 1760 nM and the TGI was found to be 3.65 µM.

With `O=C(Nc1ccc(-n2cc(-c3ccncc3)c(-c3ccc(Cl)c(O)c3)n2)cc1)Nc1ccc(Cl)c(C(F)(F)F)c1`, the GI50 is 2420 nM and the TGI amounted to 7.46 µM.

Consider `COc1ccc(C(=O)COc2cccc(/C=C3\Oc4ccc5ccccc5c4C3=O)c2)cc1`, for which the GI50 is 3190 nM and the TGI came to 18.7 µM.

On to `Cc1c(C2=C(Br)C(=O)N(C)C2=O)c(=O)n(C)c(=O)n1C`, for which the TGI was 41 µM.

`N#CC(=NCCO)C1=C(O)c2ccccc2C1=O` displayed a TGI above 100 µM.

`NC(CS/C(Cl)=C/Cl)C(=O)O` (stereo unspecified): the GI50 is 51700 nM and the TGI is above 100 µM.

For the compound `CCn1c(CO)nn(-c2cc(O[C@@H](C)C(F)(F)F)c(C(=O)Nc3c(F)cccc3Cl)cc2F)c1=O`, the GI50 was 35.7 nM and the TGI is above 46.7 µM.

The compound `CC1CCC(=O)C(C(=O)CC2CC(=O)NC(=O)C2)C1` (stereo unspecified) showed a TGI above 100 µM.

As for `O=C(Nc1ccc(CO)cc1)c1coc2ccccc2c1=O`, the GI50 is above 100000 nM and the TGI was above 100 µM.

Turning to `Cc1cc(N/N=C/c2nc(-c3ccc(Br)cc3)oc2C)c2cc(Br)ccc2n1`, the GI50 was 2240 nM and the TGI came out at 6.28 µM.

On to `COc1ccc2c(O)cc3c(c2c1)[C@H](CCl)CN3C(=O)c1cc2cc(NC(=O)CCN3CCOCC3)ccc2[se]1`, for which the GI50 is 1.42 nM and the TGI was above 10 µM.

Consider `CC(C)N=c1cc2n(-c3ccc(Cl)cc3)c3ccccc3nc-2cc1Nc1ccc(Cl)cc1`, for which the GI50 is 1040 nM and the TGI is 2.46 µM.

The test system of another assay is UO-31 renal. Kind of assay: NCI-60 cell line screen, 48 h.
For `N#C/C(=C/N1CCN(C(=O)c2ccco2)C1=S)C(=O)c1ccccc1`, the GI50 was 10.2 µM and the TGI was found to be 32.5 µM.

For the compound `Nc1nc(SN=Nc2ccc(S(N)(=O)=O)cc2)c2[nH]cnc2n1`, the GI50 is 0.455 µM and the TGI was above 100 µM.

Regarding `COCCOc1cnc2ccn([C@H](C)c3nnc4c(F)cc(-c5cnn(C)c5)cn34)c(=O)c2c1`, the GI50 was 70.6 µM and the TGI is above 100 µM.

With `CC(C)CNC(=O)O`, the TGI was above 100 µM.

In turn, `CCOC(=O)c1c[nH]c2oc(/C=N/N3CC(CN4CCOCC4)OC3=O)cc2c1=O` (stereo unspecified) yielded a TGI above 100 µM.

As to `CCC(C)(C)c1ccc(OCCCCCCN2CCNCC2)cc1`, the GI50 was 1.93 µM and the TGI was 4.8 µM.

As to `O=C(Nc1ccc(-n2cc(-c3ccncc3)c(-c3ccc(Cl)c(O)c3)n2)cc1)Nc1ccc(Cl)c(C(F)(F)F)c1`, the GI50 was 1.66 µM and the TGI worked out at 3.6 µM.

As to `COc1ccc(C(=O)COc2cccc(/C=C3\Oc4ccc5ccccc5c4C3=O)c2)cc1`, the GI50 is 6.42 µM and the TGI turned out to be 23.2 µM.

`Cc1c(C2=C(Br)C(=O)N(C)C2=O)c(=O)n(C)c(=O)n1C` yielded a TGI of 33.3 µM.

As to `N#CC(=NCCO)C1=C(O)c2ccccc2C1=O`, the TGI is above 100 µM.

As to `NC(CS/C(Cl)=C/Cl)C(=O)O` (stereo unspecified), the GI50 is 54.8 µM and the TGI was above 100 µM.

In the case of `CCn1c(CO)nn(-c2cc(O[C@@H](C)C(F)(F)F)c(C(=O)Nc3c(F)cccc3Cl)cc2F)c1=O`, the GI50 is 1.02 µM and the TGI was above 100 µM.

In the case of `CC1CCC(=O)C(C(=O)CC2CC(=O)NC(=O)C2)C1` (stereo unspecified), the TGI was above 100 µM.

Regarding `O=C(Nc1ccc(CO)cc1)c1coc2ccccc2c1=O`, the GI50 is above 100 µM and the TGI is above 100 µM.

As to `Cc1cc(N/N=C/c2nc(-c3ccc(Br)cc3)oc2C)c2cc(Br)ccc2n1`, the GI50 is 13.9 µM and the TGI amounted to 26.8 µM.

`COc1ccc2c(O)cc3c(c2c1)[C@H](CCl)CN3C(=O)c1cc2cc(NC(=O)CCN3CCOCC3)ccc2[se]1`: the GI50 is below 0.001 µM and the TGI was below 0.001 µM.
